# Laboratory results: ChEMBL document CHEMBL4130462, “Natural isoflavone biochanin A as a template for the design of new and potent 3-phenylquinolone efflux inhibitors against Mycobacterium avium” (Eur J Med Chem, 2017)
# Key:
# Mycobacterium avium [1] = conditions: isolate MAV2
# Description: Inhibition of multidrug resistance efflux pump in Mycobacterium avium isolate MAV2 assessed as potentiation of ofloxacin-induced antibacterial activity by measuring ofloxacin MIC at 1/4 MIC incubated for 3 days by MTT assay
# Mycobacterium avium [2] = conditions: isolate MAV1
# Mycobacterium avium [3] = conditions: isolate MAV4
# Mycobacterium avium [4] = conditions: isolate MAV4; remark: listed apart in the source
# Mycobacterium avium [5] = conditions: isolate MAV2; remark: listed apart in the source
# Description: Inhibition of multidrug resistance efflux pump in Mycobacterium avium isolate MAV2 assessed as potentiation of ofloxacin-induced antibacterial activity by measuring ofloxacin MIC at 1/2 MIC incubated for 3 days by MTT assay
# Mycobacterium avium [6] = conditions: 104
# Mycobacterium avium [7] = conditions: 104 mc'2 3
# [8] = test system: Mycobacterium avium subsp. avium ATCC 25291
# Description: Inhibition of multidrug resistance efflux pump in Mycobacterium avium ATCC 25291 assessed as potentiation of ethidium bromide-induced antibacterial activity by measuring ethidium bromide MIC at 1/4 MIC incubated for 3 days by MTT assay
# [9] = test system: Mycobacterium avium subsp. avium ATCC 25291; remark: listed apart in the source
# Mycobacterium avium [10] = conditions: isolate MAV3
# Mycobacterium avium [11] = conditions: 104 mc'2 4
# [12] = test system: Mycobacterium avium subsp. avium ATCC 25291; remark: listed apart in the source
# Mycobacterium avium [13] = conditions: 104 mc'2 3; remark: listed apart in the source
# Mycobacterium avium [14] = conditions: 104 mc'2 4; remark: listed apart in the source
# Mycobacterium avium [15] = conditions: in vivo, 72 h
# Description: Antimycobacterial activity against Mycobacterium avium 104 mc'2 4 assessed as reduction in bacterial viability incubated for 3 days by MTT assay
# Mycobacterium avium [16] = test: Antimycobacterial activity against Mycobacterium avium isolate MAV3 assessed as reduction in bacterial viability incubated for 3 days by MTT assay; type: organism-based; conditions: 72 h
# Mycobacterium avium [17] = conditions: isolate MAV4; remark: listed apart in the source
# Description: Inhibition of multidrug resistance efflux pump in Mycobacterium avium isolate MAV4 assessed as potentiation of ethidium bromide-induced antibacterial activity by measuring ethidium bromide MIC at 1/4 MIC incubated for 3 days by MTT assay
# Mycobacterium avium [18] = conditions: 104; remark: listed apart in the source
# Description: Inhibition of multidrug resistance efflux pump in Mycobacterium avium 104 assessed as potentiation of clarithromycin -induced antibacterial activity by measuring clarithromycin MIC at 1/4 MIC incubated for 3 days by MTT assay
# Mycobacterium avium [19] = test: Antimycobacterial activity against Mycobacterium avium isolate MAV4 assessed as reduction in bacterial viability incubated for 3 days by MTT assay; type: organism-based; conditions: 72 h
# Mycobacterium avium [20] = conditions: in vivo, 72 h; remark: listed apart in the source
# Description: Antimycobacterial activity against Mycobacterium avium 104 mc'2 3 assessed as reduction in bacterial viability incubated for 3 days by MTT assay
# Mycobacterium avium [21] = conditions: isolate MAV4; remark: listed apart in the source
# Mycobacterium avium [22] = conditions: isolate MAV2; remark: listed apart in the source
# Mycobacterium avium [23] = conditions: 104; remark: listed apart in the source
# Mycobacterium avium [24] = conditions: 104 mc'2 4; remark: listed apart in the source
# Mycobacterium avium [25] = conditions: isolate MAV1; remark: listed apart in the source
# Mycobacterium avium [26] = conditions: isolate MAV1; remark: listed apart in the source
# Description: Inhibition of multidrug resistance efflux pump in Mycobacterium avium isolate MAV1 assessed as potentiation of ofloxacin-induced antibacterial activity by measuring ofloxacin MIC at 1/4 MIC incubated for 3 days by MTT assay (Rvb = 4 ug/ml)
# Mycobacterium avium [27] = conditions: isolate MAV4; remark: listed apart in the source
# Mycobacterium avium [28] = conditions: isolate MAV3; remark: listed apart in the source
# [29] = test system: Mycobacterium avium subsp. avium ATCC 25291; remark: listed apart in the source
# Mycobacterium avium [30] = conditions: isolate MAV2; remark: listed apart in the source
# Mycobacterium avium [31] = conditions: isolate MAV3; remark: listed apart in the source
# Mycobacterium avium [32] = conditions: 104; remark: listed apart in the source
# Mycobacterium avium [33] = conditions: isolate MAV4; remark: listed apart in the source
# Mycobacterium avium [34] = conditions: 104 mc'2 3; remark: listed apart in the source
# Mycobacterium avium [35] = conditions: isolate MAV3; remark: listed apart in the source
# Mycobacterium avium [36] = conditions: isolate MAV2; remark: listed apart in the source
# Description: Inhibition of multidrug resistance efflux pump in Mycobacterium avium isolate MAV2 assessed as potentiation of clarithromycin -induced antibacterial activity by measuring clarithromycin MIC at 1/4 MIC incubated for 3 days by MTT assay (Rvb = >1024 ug/ml)
# Mycobacterium avium [37] = conditions: 104 mc'2 3; remark: listed apart in the source
# Mycobacterium avium [38] = conditions: isolate MAV1; remark: listed apart in the source
# Mycobacterium avium [39] = conditions: isolate MAV1; remark: listed apart in the source
# Mycobacterium avium [40] = conditions: isolate MAV3; remark: listed apart in the source
# Mycobacterium avium [41] = conditions: isolate MAV1; remark: listed apart in the source
# Description: Inhibition of multidrug resistance efflux pump in Mycobacterium avium isolate MAV1 assessed as potentiation of ciprofloxacin-induced antibacterial activity by measuring ciprofloxacin MIC at 1/4 MIC incubated for 3 days by MTT assay
# Mycobacterium avium [42] = conditions: 104; remark: listed apart in the source
# Mycobacterium avium [43] = conditions: isolate MAV2; remark: listed apart in the source
# [44] = Cytotoxicity in human monocyte-derived macrophages assessed as reduction in cell viability incubated for 3 days by alamar blue dye based assay; parameters: species or system Macrophage cell line
# Mycobacterium avium [45] = conditions: isolate MAV2; remark: listed apart in the source
# Mycobacterium avium [46] = conditions: isolate MAV1; remark: listed apart in the source
# Mycobacterium avium [47] = conditions: 104; remark: listed apart in the source
# Mycobacterium avium [48] = conditions: 104 mc'2 4; remark: listed apart in the source
# Mycobacterium avium [49] = conditions: isolate MAV1; remark: listed apart in the source
# Description: Inhibition of multidrug resistance efflux pump in Mycobacterium avium isolate MAV1 assessed as potentiation of ciprofloxacin-induced antibacterial activity by measuring ciprofloxacin MIC at 1/2 MIC incubated for 3 days by MTT assay (Rvb = 2 ug/ml)
# Mycobacterium avium [50] = conditions: isolate MAV1; remark: listed apart in the source
# Mycobacterium avium [51] = conditions: 104; remark: listed apart in the source
# Mycobacterium avium [52] = conditions: isolate MAV1; remark: listed apart in the source
# Description: Inhibition of multidrug resistance efflux pump in Mycobacterium avium isolate MAV1 assessed as potentiation of ofloxacin-induced antibacterial activity by measuring ofloxacin MIC at 1/2 MIC incubated for 3 days by MTT assay (Rvb = 4 ug/ml)
# Mycobacterium avium [53] = conditions: isolate MAV3; remark: listed apart in the source
# Mycobacterium avium [54] = conditions: 104; remark: listed apart in the source
# [55] = test system: Mycobacterium avium subsp. avium ATCC 25291; remark: listed apart in the source
# Mycobacterium avium [56] = conditions: isolate MAV4; remark: listed apart in the source
# Mycobacterium avium [57] = conditions: isolate MAV1; remark: listed apart in the source
# Mycobacterium avium [58] = conditions: 104 mc'2 3; remark: listed apart in the source
# Mycobacterium avium [59] = conditions: isolate MAV4; remark: listed apart in the source
# [60] = test system: Mycobacterium avium subsp. avium ATCC 25291; remark: listed apart in the source
# Mycobacterium avium [61] = conditions: 104 mc'2 4; remark: listed apart in the source
# Mycobacterium avium [62] = conditions: 104 mc'2 4; remark: listed apart in the source
# Mycobacterium avium [63] = conditions: 104 mc'2 3; remark: listed apart in the source
# Mycobacterium avium [64] = conditions: 104; remark: listed apart in the source
# Description: Inhibition of multidrug resistance efflux pump in Mycobacterium avium 104 assessed as potentiation of clarithromycin -induced antibacterial activity by measuring clarithromycin MIC at 1/2 MIC incubated for 3 days by MTT assay
# [65] = test system: Mycobacterium avium subsp. avium ATCC 25291; remark: listed apart in the source
# Description: Inhibition of multidrug resistance efflux pump in Mycobacterium avium ATCC 25291 assessed as potentiation of ethidium bromide-induced antibacterial activity by measuring ethidium bromide MIC at 1/2 MIC incubated for 3 days by MTT assay (Rvb = 50 ug/ml)
smiles,measurement,setting,value
CN(C)CCCN1c2ccccc2Sc2ccc(Cl)cc21 [CHLORPROMAZINE],MIC,Mycobacterium avium [1],2 µg/mL
same,MIC,Mycobacterium avium [2],< 0.031 µg/mL
same,MIC,Mycobacterium avium [3],128 µg/mL
same,MIC,Mycobacterium avium [4],44 µg/mL
same,MIC,Mycobacterium avium [5],1 µg/mL
same,MIC,Mycobacterium avium [6],1 µg/mL
same,MIC,Mycobacterium avium [7],8 µg/mL
same,MIC,[8],12.5 µg/mL
same,MIC,[9],16 µg/mL
same,MIC,Mycobacterium avium [10],64 µg/mL
same,MIC,Mycobacterium avium [11],0.25 µg/mL
same,MIC,[12],< 0.25 µg/mL
same,MIC,Mycobacterium avium [13],> 512 µg/mL
same,MIC,Mycobacterium avium [14],4 µg/mL
same,MIC,Mycobacterium avium [15],30 µg/mL
same,MIC,Mycobacterium avium [16],30 µg/mL
same,MIC,Mycobacterium avium [17],12.5 µg/mL
same,MIC,Mycobacterium avium [18],4 µg/mL
same,MIC,Mycobacterium avium [19],30 µg/mL
same,MIC,Mycobacterium avium [20],30 µg/mL
same,MIC,Mycobacterium avium [21],128 µg/mL
same,MIC,Mycobacterium avium [22],> 512 µg/mL
same,MIC,Mycobacterium avium [23],2 µg/mL
same,MIC,Mycobacterium avium [24],8 µg/mL
same,MIC,Mycobacterium avium [25],< 4 µg/mL
same,MIC,Mycobacterium avium [26],1 µg/mL
same,MIC,Mycobacterium avium [27],16 µg/mL
same,MIC,Mycobacterium avium [28],1 µg/mL
same,MIC,[29],< 0.5 µg/mL
same,MIC,Mycobacterium avium [30],12.5 µg/mL
same,MIC,Mycobacterium avium [31],128 µg/mL
same,MIC,Mycobacterium avium [32],2 µg/mL
same,MIC,Mycobacterium avium [33],32 µg/mL
same,MIC,Mycobacterium avium [34],< 4 µg/mL
same,MIC,Mycobacterium avium [35],8 µg/mL
same,MIC,Mycobacterium avium [36],> 512 µg/mL
same,MIC,Mycobacterium avium [37],1 µg/mL
same,MIC,Mycobacterium avium [38],32 µg/mL
same,MIC,Mycobacterium avium [39],< 4 µg/mL
same,MIC,Mycobacterium avium [40],12.5 µg/mL
same,MIC,Mycobacterium avium [41],1 µg/mL
same,MIC,Mycobacterium avium [42],< 4 µg/mL
same,MIC,Mycobacterium avium [43],4 µg/mL
same,CC50 at 72 h,[44]; human monocyte-derived macrophages,22.2 µM
same,MTC,"[44]; macrophage cell line, 72 h",1.25 µM
same,MIC,Mycobacterium avium [45],> 512 µg/mL
same,MIC,Mycobacterium avium [46],1.56 µg/mL
same,MIC,Mycobacterium avium [47],8 µg/mL
same,MIC,Mycobacterium avium [48],6.25 µg/mL
same,MIC,Mycobacterium avium [49],< 0.031 µg/mL
same,MIC,Mycobacterium avium [50],< 0.195 µg/mL
same,MIC,Mycobacterium avium [51],0.5 µg/mL
same,MIC,Mycobacterium avium [52],< 0.0625 µg/mL
same,MIC,Mycobacterium avium [53],16 µg/mL
same,MIC,Mycobacterium avium [54],6.25 µg/mL
same,MIC,[55],< 1 µg/mL
same,MIC,Mycobacterium avium [56],2 µg/mL
same,MIC,Mycobacterium avium [57],0.0625 µg/mL
same,MIC,Mycobacterium avium [58],> 512 µg/mL
same,MIC,Mycobacterium avium [59],3.12 µg/mL
same,MIC,[60],16 µg/mL
same,MIC,Mycobacterium avium [61],0.39 µg/mL
same,MIC,Mycobacterium avium [62],> 512 µg/mL
same,MIC,Mycobacterium avium [63],> 512 µg/mL
same,MIC,Mycobacterium avium [64],1 µg/mL
same,MIC,[65],< 0.39 µg/mL
